What was measured:
PI3Kdelta = target: T1, PI3Kdelta (Homo sapiens, UniProt O00329); experiment: HTRF PI3K biochemical assay, delta isoform; conditions: 0.3 nM enzyme, 100 uM ATP, 5 uM PIP2, form screened (Neutral or TFA salt) given per compound
T1 construct: purchased Upstate; Millipore 14-604
Text: (§1) HTRF PI3K Biochemical Assay to Measure Intrinsic Potency of Compound Inhibitors
(§2) The PI3-Kinase biochemical assays were developed to measure the intrinsic potency and compound dependent inhibition of the alpha, beta, delta, and gamma PI3K isoform enzymes. This assay was developed and further optimized from a kit produced by Upstate (Millipore catalog #33-047) and has been configured for HTS and SAR screening. Briefly, this procedure exploits the exquisite specificity and high affinity binding of […] phosphatidyl(3,4,5)triphosphate (PIP3) to the GRP1 pleckstrin homology (PH) domain to generate the signal. In the absence of PIP3, an HTRF (Homogeneous Time-Resolved Fluorescence energy transfer) complex is formed consisting of europium (Eu)-labeled anti-GST, GSTtagged GRP1-PH domain, biotin-PIP3 and streptavidin conjugated APC. The native PIP3 produced by PI3-Kinase activity disrupts in a competitive manner the biotin-PIP3 from the PH domain, resulting in the loss of energy transfer (HTRF complex) and a decrease in the signal. The format of this assay is the same for all 4 isoforms of PI3K; the differences lie in the concentration of enzyme used to achieve robust assay window. The alpha, beta, and delta assays are run at 0.5, 1, and 0.3 nM enzymes and the gamma assay is run at 5 nM enzyme. The ATP concentration is 100 uM in the alpha, beta, and delta assays and 50 uM ATP in the gamma assay. All reactions are run at 5 uM PIP2.
(§3) Compounds are serially diluted (3-fold in 100% DMSO) across a 384-well polypropylene source plated from column 3 to column 12 and column 13 to column 22, to yield 10 concentration dose response for each test compound. Columns 1, 2, 23 and 24 contain either only DMSO or pharmacological known control inhibitor. Once titrations are made, 2.5 nL of the compounds on 384 well plates are reformatted and transferred by acoustic dispense in quadruplicates to a 1536 assay plate (Greiner) to assay across all four PI3K isoform enzymes.
(§4) The PI3-Kinase biochemical assay was optimized using the HTRF kit provided by Upstate (Millipore). The assay kit contains six reagents: 1) 4× Reaction Buffer; 2) native PIP2 (substrate); 3) Stop (EDTA); 4) Detection Mix A (Streptavidin-APC); 5) Detection Mix B (Eu-labeled Anti-GST plus GST-tagged PH-domain); 6) Detection Mix C. In addition, the following items were obtained or purchased; PI3Kinase (alpha 14-602, beta 14-603, gamma 14-558 and delta 14-604 from Upstate; Millipore), dithiothreitol (Sigma, D-5545), Adenosine-5′ triphosphate (InVitrogen, Cat#AS001A), native PIP3 (PI(3,4,5)P3, diC8, H^+, CELLSIGNALS, INC. Cat #907) DMSO (Sigma, 472301).
(§5) PI3Kinase Reaction Buffer is prepared by dilution the stock 1:4 with de-ionized water. DTT, PIP2 and Biotin-PIP3 were added to 1536 assay plate at a final concentration of 5 mM, […] 25 nM on the day of use. Enzyme addition and compound pre-incubation are initiated by the addition of 1.25 ul of PI3K (at twice its final concentration) in the 1× reaction buffer to all wells using a BioRaptor. Plates are incubated at room temperature for 15 minutes. Reactions are initiated by addition of 1.25 ul of 2× substrate solution (PIP2 and ATP in 1× reaction buffer) using BioRaptor. Plates are incubated in humidified chamber at room temperature for one hour. Reactions are quenched by addition of 0.625 uL of stop solution to all wells using the BioRaptor. The quenched reactions are then processed to detect product formation by adding 0.625 uL of Detection Solution to all wells using the BioRaptor (Detection mix C, Detection Mix A, and Detection Mix B combined together in an 18:1:1 ratio prepared 2 hours prior to use). Following a one hour incubation in the dark, the HTRF signal is measured on the Envision plate reader set for 330 nm excitation and dual emission detection at […]. […]

PI3Kalpha = target: T2, PI3Kalpha (Homo sapiens, UniProt P42336); experiment: HTRF PI3K biochemical assay, alpha isoform (selectivity versus delta); conditions: relative ratio PI3K-alpha IC50 value / PI3K-delta IC50 value
T2 construct: purchased Upstate; Millipore 14-602
T2 sequence (P42336 whole entry, canonical isoform): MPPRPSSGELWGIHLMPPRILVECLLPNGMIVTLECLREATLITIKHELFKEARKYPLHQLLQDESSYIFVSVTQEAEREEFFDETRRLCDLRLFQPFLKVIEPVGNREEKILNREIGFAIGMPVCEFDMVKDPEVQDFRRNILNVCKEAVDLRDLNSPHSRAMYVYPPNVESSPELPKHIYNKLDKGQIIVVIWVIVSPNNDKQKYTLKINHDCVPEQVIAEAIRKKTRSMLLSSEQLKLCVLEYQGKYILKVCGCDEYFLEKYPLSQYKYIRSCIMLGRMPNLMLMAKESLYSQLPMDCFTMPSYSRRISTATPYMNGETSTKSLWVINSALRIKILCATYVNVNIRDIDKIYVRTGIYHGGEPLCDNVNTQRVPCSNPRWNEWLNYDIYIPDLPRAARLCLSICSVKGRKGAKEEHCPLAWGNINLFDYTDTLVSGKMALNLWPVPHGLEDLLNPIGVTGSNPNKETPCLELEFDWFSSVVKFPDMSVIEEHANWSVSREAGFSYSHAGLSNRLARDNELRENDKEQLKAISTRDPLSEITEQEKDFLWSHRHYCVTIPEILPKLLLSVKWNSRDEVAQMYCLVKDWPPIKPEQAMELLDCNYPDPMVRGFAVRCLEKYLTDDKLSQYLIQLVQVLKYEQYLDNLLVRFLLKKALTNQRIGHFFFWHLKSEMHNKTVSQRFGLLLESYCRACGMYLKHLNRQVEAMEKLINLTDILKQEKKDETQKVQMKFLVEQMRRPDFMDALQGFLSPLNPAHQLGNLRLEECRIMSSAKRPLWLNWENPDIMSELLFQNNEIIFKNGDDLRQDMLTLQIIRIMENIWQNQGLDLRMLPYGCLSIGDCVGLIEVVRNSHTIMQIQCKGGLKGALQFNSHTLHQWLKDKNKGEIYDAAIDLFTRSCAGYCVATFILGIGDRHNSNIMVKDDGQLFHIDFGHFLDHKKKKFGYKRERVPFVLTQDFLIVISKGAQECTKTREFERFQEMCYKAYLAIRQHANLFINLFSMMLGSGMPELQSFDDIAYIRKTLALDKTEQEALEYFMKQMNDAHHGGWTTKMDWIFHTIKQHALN
T2 sequence (P27986 whole entry partner, canonical isoform): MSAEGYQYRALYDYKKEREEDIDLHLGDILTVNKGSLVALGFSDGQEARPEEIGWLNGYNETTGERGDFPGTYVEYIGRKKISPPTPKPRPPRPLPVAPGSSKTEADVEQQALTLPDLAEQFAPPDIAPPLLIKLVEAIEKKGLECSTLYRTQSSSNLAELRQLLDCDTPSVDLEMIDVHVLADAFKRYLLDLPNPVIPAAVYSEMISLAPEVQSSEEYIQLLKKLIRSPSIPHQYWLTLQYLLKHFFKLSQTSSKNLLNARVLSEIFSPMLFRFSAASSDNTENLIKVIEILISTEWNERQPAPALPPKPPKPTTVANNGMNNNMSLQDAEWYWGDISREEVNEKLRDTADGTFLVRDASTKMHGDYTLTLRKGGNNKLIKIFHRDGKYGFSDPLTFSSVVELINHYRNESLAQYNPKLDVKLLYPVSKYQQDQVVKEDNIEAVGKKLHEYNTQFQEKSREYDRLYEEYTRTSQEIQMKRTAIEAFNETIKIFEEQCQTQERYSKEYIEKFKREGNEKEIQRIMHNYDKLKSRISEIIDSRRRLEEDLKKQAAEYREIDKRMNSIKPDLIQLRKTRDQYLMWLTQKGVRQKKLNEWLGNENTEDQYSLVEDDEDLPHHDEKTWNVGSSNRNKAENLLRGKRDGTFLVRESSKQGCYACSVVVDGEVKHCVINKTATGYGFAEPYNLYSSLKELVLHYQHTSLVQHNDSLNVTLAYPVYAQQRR
Text: as §1, §2, §3, §4, §5

T1 sequence (O00329 whole entry, canonical isoform): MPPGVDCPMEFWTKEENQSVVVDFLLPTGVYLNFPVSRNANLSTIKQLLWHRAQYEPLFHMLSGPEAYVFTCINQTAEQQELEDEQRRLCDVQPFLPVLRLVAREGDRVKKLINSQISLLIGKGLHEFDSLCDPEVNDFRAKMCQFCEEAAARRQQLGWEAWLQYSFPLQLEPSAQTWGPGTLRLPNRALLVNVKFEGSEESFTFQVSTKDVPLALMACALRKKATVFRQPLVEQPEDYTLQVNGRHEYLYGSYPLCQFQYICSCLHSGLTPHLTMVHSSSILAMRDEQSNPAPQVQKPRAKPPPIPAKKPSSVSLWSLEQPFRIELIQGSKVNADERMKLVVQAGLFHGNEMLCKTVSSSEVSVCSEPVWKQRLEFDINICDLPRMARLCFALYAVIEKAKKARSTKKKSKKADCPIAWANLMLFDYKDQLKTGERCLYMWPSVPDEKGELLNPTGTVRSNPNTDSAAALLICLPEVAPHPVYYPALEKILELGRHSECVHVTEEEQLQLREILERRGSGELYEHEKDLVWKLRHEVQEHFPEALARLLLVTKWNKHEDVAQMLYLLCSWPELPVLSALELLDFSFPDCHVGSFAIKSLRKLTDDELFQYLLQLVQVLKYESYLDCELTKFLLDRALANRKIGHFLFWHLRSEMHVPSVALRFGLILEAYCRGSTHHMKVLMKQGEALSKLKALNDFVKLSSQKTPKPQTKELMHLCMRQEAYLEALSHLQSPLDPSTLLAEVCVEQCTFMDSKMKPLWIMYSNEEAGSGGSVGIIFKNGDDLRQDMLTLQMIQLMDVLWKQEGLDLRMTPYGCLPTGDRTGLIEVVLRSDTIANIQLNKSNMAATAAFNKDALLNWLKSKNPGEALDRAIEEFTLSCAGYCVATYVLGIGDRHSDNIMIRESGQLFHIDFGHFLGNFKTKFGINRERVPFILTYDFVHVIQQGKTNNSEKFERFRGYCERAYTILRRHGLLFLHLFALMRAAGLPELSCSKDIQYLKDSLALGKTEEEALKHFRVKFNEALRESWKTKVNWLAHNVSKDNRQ
T1 sequence (P27986 whole entry partner, canonical isoform): as the sequence (P27986 whole entry partner, canonical isoform) above

IC50 (PI3Kdelta) [µM]	Selectivity versus PI3Kalpha (PI3Kalpha)	SMILES
0.0074	>10	CCn1c(-c2cnc(C)nc2)nc2c(NC3CCc4c(c(C(C)C)nn4CCN(C)C)C3)ncnc21 (racemic) [Compound 2-3, (S and R)-N-{1-[2-(dimethylamino)ethyl]-3-(1-methylehyl)-4,5,6,7-tetrahydro-1H-indazol-5-yl}-9-ethyl-8-(2-methylpyrimidin-5-yl)-9H-purin-6-amine]
0.06	>10	CCn1c(C(F)F)nc2c(NC3CCc4[nH]nc(C(C)C)c4C3)ncnc21 (racemic) [Compound 2-9, (S and R)-8-(difluoromethyl)-9-ethyl-N-[3-(1-methylethyl)-4,5,6,7-tetrahydro-1H-indazol-5-yl]-9H-purin-6-amine]
0.015	>10	CCn1c(-c2cnc(C)nc2)nc2c(NC3CCc4c(c(C(C)C)nn4C(C)=O)C3)ncnc21 (racemic) [Compound 2-12, (S and R)-N-[1-acetyl-3-(1-methylethyl)-4,5,6,7-tetrahydro-1H-indazol-5-yl]-9-ethyl-8-(2-methylpyrimidin-5-yl)-9H-purin-6-amine]
0.03	>10	CCn1c(-c2cnc(C)nc2)nc2c(NC3CCc4c(c(C(C)C)nn4C(=O)c4ccccc4)C3)ncnc21 (racemic) [Compound 2-13, (S and R)-9-ethyl-N-[3-(1-methylethyl)-1-(phenylcarbonyl)-4,5,6,7-tetrahydro-1H-indazol-5-yl]-8-(2-methylpyrimidin-5-yl)-9H-purin-6-amine]
0.02	>10	CCn1c(-c2cnc(C)nc2)nc2c(NC3CCc4c(c(C(C)C)nn4C(=O)CN(C)C)C3)ncnc21 (racemic) [Compound 2-14, (S and R)-N-{1-[(dimethylamino)acetyl]-3-(1-methylethyl)-4,5,6,7-tetrahydro-1H-indazol-5-yl}-9-ethyl-8-(2-methylpyrimidin-5-yl)-9H-purin-6-amine]
0.078	>10	CCn1c(-c2cnc(C)nc2)nc2c(NC3CCc4c(c(C(C)C)nn4C(=O)CC(C)(C)C)C3)ncnc21 (racemic) [Compound 2-15, (S and R)-N-[1-(3,3-dimethylbutanoyl)-3-(1-methylethyl)-4,5,6,7-tetrahydro-1H-indazol-5-yl]-9-ethyl-8-(2-methylpyrimidin-5-yl)-9H-purin-6-amine]
< 0.001	>10	CCn1c(-c2cnc(C)nc2)nc2c(NC3CCc4c(c(C(C)C)nn4C(=O)OC(C)(C)C)C3)ncnc21 (racemic) [Compound 2-16, (S and R)-tert-butyl 5-{[9-ethyl-8-(2-methylpyrirnidin-5-yl)-9H-purin-6-yl]amino}-3-(1-methylethyl)-4,5,6,7-tetrahydro-1H-indazole-1-carboxylate]
0.0023	>10	CCOC(=O)n1nc(C(C)C)c2c1CCC(Nc1ncnc3c1nc(-c1cnc(C)nc1)n3CC)C2 (racemic) [Compound 2-17, (S and R)-ethyl 5-{[9-ethyl-8-(2-methylpyrimidin-5-yl)-9H-purin-6-yl]amino}-3-(1-methylethyl)-4,5,6,7-tetrahydro-1H-indazole-1-carboxylate]
< 0.001	>10	CCn1c(-c2cnc(C)nc2)nc2c(NC3CCc4c(c(C(C)C)nn4C(=O)OC(C)C)C3)ncnc21 (racemic) [Compound 2-18, (S and R)-1-methylethyl 5-{[9-ethyl-8-(2-methylpyrimidin-5-yl)-9H-purin-6-yl]amino}-3-(1-methylethyl)-4,5,6,7-tetrahydro-1H-indazole-1-carboxylate]
0.0026	>10	CCn1c(-c2cnc(C)nc2)nc2c(NC3CCc4c(c(C(C)C)nn4C(=O)OC(C)(C)C(F)(F)F)C3)ncnc21 (racemic) [Compound 2-20, (S and R)-2,2,2-trifluoro-1,1-dimethylethyl 5-{[9-ethyl-8-(2-methylpyrimidin-5-yl)-9H-purin-6-yl]amino}-3-(1-methylethyl)-4,5,6,7-tetrahydro-1H-indazole-1-carboxylate]
0.016	>10	CCn1c(-c2cnc(C)nc2)nc2c(NC3CCc4c(c(C(C)C)nn4C(=O)NC(C)(C)C)C3)ncnc21 (racemic) [Compound 2-21, (S and R)-N-tert-butyl-5-{[9-ethyl-8-(2-methylpyrimidin-5-yl)-9H-purin-6-yl]amino}-3-(1-methylethyl)-4,5,6,7-tetrahydro-1H-indazole-1-carboxamide]
0.011	>10	CCn1c(-c2cnc(C)nc2)nc2c(NC3CCc4c(c(C(C)C)nn4-c4ccccn4)C3)ncnc21 (racemic) [Compound 2-22, (S and R)-9-ethyl-N-[3-(1-methylethyl)-1-pyridin-2-yl-4,5,6,7-tetrahydro-1H-indazol-5-yl]-8-(2-methylpyrimidin-5-yl)-9H-purin-6-amine]
< 0.001	>10	CCn1c(-c2cnc(C)nc2)nc2c(NC3CCc4c(c(C(C)C)nn4S(C)(=O)=O)C3)ncnc21 (racemic) [Compound 2-23, (S and R)-9-ethyl-N-[3-(1-methylethyl)-1-(methylsulfonyl)-4,5,6,7-tetrahydro-1H-indazol-5-yl]-8-(2-methylpyrimidin-5-yl)-9H-purin-6-amine]
0.0061	>10	CCn1c(-c2cnc(C)nc2)nc2c(NC3Cc4cnn(Cc5ccccc5)c4C3)ncnc21 (racemic) [Compound 2-26, (S and R)-N-(1-benzyl-1,4,5,6-tetrahydrocyclopenta[c]pyrazol-5-yl)-9-ethyl-8-(2-methylpyrimidin-5-yl)-9H-purin-6-amine]
0.025	>10	CCc1nn(CC)c2c1CC(Oc1ncnc3c1nc(-c1cnc(C)nc1)n3CC)CC2 (racemic) [Compound 2-27, (S and R)-6-[(1,3-diethyl-4,5,6,7-tetrahydro-1H-indazol-5-yl)oxy]-9-ethyl-8-(2-methylpyrimidin-5-yl)-9H-purine]
0.55	>10	CCc1cnc2n1CC(Oc1ncnc3c1nc(-c1cnc(C)nc1)n3CC)C2 (racemic) [Compound 4-5, (S and R)-9-ethyl-6-[(3-ethyl-6,7-dihydro-5H-pyrrolo[1,2-a]imidazol-6-yl)oxy]-8-(2-methylpyrimidin-5-yl)-9H-purine]
< 0.001	>10	CCn1c(-c2cnc(C)nc2)nc2c(NC3CCc4nc(Cl)n(C5CC5)c4C3)ncnc21 (racemic) [Compound 5-12, (S and R)-N-(2-chloro-1-cyclopropyl-4,5,6,7-tetrahydro-1H-benzimidazol-6-yl)-9-ethyl-8-(2-methylpyrimidin-5-yl)-9H-purin-6-amine]
0.0042	>10	CCn1c(-c2cnc(C)nc2)nc2c(NC3CCc4nnc(C5CC5)n4C3)ncnc21 (single isomer, unassigned) [Compound 1-1, (S or R)-N-(3-cyclopropyl-5,6,7,8-tetrahydro[1,2,4]triazolo[4,3-a]pyridin-6-yl)-9-ethyl-8-(2-methylpyrimidin-5-yl)-9H-purin-6-amine]

Reference: patent US10100064B2, “Purine inhibitors of human phosphatidylinositol 3-kinase delta” (Merck Sharp & Dohme Corp., priority 2014, dated 2018)
